Usually NOAEL stands for the highest dose or exposure tested at which no adverse effect was seen. The LC50 is the concentration that kills 50% of the test population.

For one series, the system named is Anas platyrhynchos. Particulars: acute; oral; unspecified; mortality.
The subject of the next series is Apis mellifera. The settings on record: acute, mortality.
The test system of the next series is Canidae. Particulars: chronic; duration: 1 years; oral; Dog Other; body weight.
Another series relates to Colinus virginianus. The settings on record: reproduction developmental.
The next series concerns Daphnia magna. Particulars: chronic/long-term; duration: 21 days; reproduction.
Another series has as its system Ictalurus punctatus. Particulars: acute; duration: 96 hours; mortality.
The test system of the next series is Oryctolagus sp. Particulars: reproduction developmental; mortality.
A further series concerns Pimephales promelas. The settings on record: chronic/long-term; duration: 35 days.
The subject of another series is Rattus norvegicus. Particulars: oral.
For another series, the system named is Tagia sp. The settings on record: chronic/long-term; reproduction.
Another series has as its system Chrysoperla externa. As to the kind of experiment: LR50; higher = less toxic. The settings on record: not reported; mortality.
The test system of a further series is Typhlodromus pyri. As to the kind of experiment: LR50; higher = less toxic. Particulars: not reported; mortality.

≈ marks a conversion by molar mass, not a printed value.

Consider `CCOC(=O)C1CC(=O)C(=C(O)C2CC2)C(=O)C1` (centres undefined) [Trinexapac-ethyl], for which the LD50 with Anas platyrhynchos is greater than 2000 mg/kg-day; with Apis mellifera (dermal), greater than 100 µg/piece; with Apis mellifera (oral, unspecified) it was greater than 83 µg/piece; with Rattus norvegicus (acute, mortality) it was 4210 mg/kg-day. Further, the NOAEL in the series on Canidae is 32 mg/kg-day; in the series with Oryctolagus sp., 60 mg/kg-day; with Rattus norvegicus (subchronic, duration: 90 days, body weight), no more than 34 mg/kg-day. The same molecule displayed an NOEL with Colinus virginianus of 17.6 mg/kg-day. The figures for the NOEC with Daphnia magna, in the series on Pimephales promelas and in the series on Tagia sp. were 2.4 mg/L, 0.41 mg/L and 81.9 mg/kg, respectively. In the series with Ictalurus punctatus, this molecule registered an LC50 of 35 µg/mL (≈ 139 µM). The values for the LR50 in the series on Chrysoperla externa and in the series with Typhlodromus pyri were greater than 400 g/ha and greater than 15 g/ha, respectively.
